# Measured values from patent US11672786B2, “Methods of treating diseases associated with repeat instability” (The Hospital for Sick Children, priority 2016, dated 2023).
# Key:
# [1] = system: long (CAG)20 slip-outs from (CAG)50●(CTG)30; test: band-shift NA-DNA binding, long (CAG)20 slip-out; parameters: species or system human; details: NA 0.15-50 μM, 4% polyacrylamide gel
# Excerpt: FIG. 2 are the results of experiments showing that NA binds to long CAG slip-outs. […] The (CAG)n DNA sequence (left) can fold into an hairpin structure involving mismatched A-A pair flanking C-G base pairs (middle). NA molecules can intercalate into the DNA helix, with the 2-amino-1,8-naphthyridine moiety (in red) hydrogen bonding to guanine and 8-azaquinolone moiety (in blue) hydrogen bonding to adenine. […] Long slip-outs extruded as a single slip-out from a fully base-paired backbone of (CTG)n●(CAG)n, as described (Pearson et al., 2002, Nuc. Acids Res., 30:4534-47). DNAs were mixed with increasing concentrations of NA (0.15 μM, 0.75 μM, 7.5 μM and 50 μM) and resolved on 4% polyacrylamide gels. All lanes are from the same gel, and they were separated for clarity. NA-DNA complexes are shown by brackets, free DNA is indicated by arrowheads. […] The relative migration was measured for the linear and the three slip-outs substrates as the ratio of the migration distance of each NA-DNA complex to the migration distance of the free DNA. The migration distance was measured from the well to a consistent center point of each band. […]
# [2] = system: transcription across the CAG transgene, R6/2 striatum; test: qRT-PCR of CAG transgene transcription in R6/2 striatum; assay type: in vivo, mouse; details: NA-treated vs. PBS-treated R6/2 striatum
# Experimental: Strand specific RT-PCR (1 weeks). AttB-PhiC31 system have been widely used for single copy integration. Panel B of FIG. 16 was determined by quantitative real-time reverse transcriptase (qRT)-PCR and normalized to U6 RNA, expressed as the ratio of NA-treated vs. PBS-treated R6/2 striatum. Data are indicated as the mean±SD of triplicates.
# d(CAG)10 = details: ESI-TOF MS; cited from earlier work
substance,measurement,setting,value
naphthyridine-azaquinolone,NA binding (band-shift),[1],extensively bound
same,effect on transcription across the CAG transgene,[2],does not affect transcription
same,number of NA molecules bound to the repeat,d(CAG)10,at least 6 NA molecules
